Measured values reported in US20040029886A1, “Dihalopropene compounds, processes for their preparation, compositions comprising them and their use as pesticides” (priority 2001, published 2004).

Key:
Format in all cases: in vivo
Parameters in all cases: key: compounds are considered to be active when, at a concentration of 500 ppm or less, their action on the harmful organisms is 50% or more
[1] = system: eggs of the corn rootworm (Diabrotica undecimpunctata); experiment: Example E: eggs of corn rootworm, Petri dish with maize corn; conditions: 500 ppm or less, after 6 days
Method: (§1) In Examples A to L below, compounds are considered to be active when, at a concentration of 500 ppm or less, their action on the harmful organisms is 50% or more.
A Petri dish, half of whose bottom was covered with filter paper and which contained a germinated maize corn on a moist cotton pad, was prepared. About 50, 4-5 day-old eggs of the corn rootworm (Diabrotica undecimpunctata) were transferred onto the filter paper. Three drops of 200 μl of an aqueous solution of the formulated preparation to be examined were pipetted onto the eggs, and the rest was pipetted onto the maize corn. The Petri dish was closed and then stored at about 25° C. in a climatized chamber. After 6 days of storage, the effect of the preparation on the eggs and any larvae which may have hatched from these (mortality) was determined. The following examples were active: No. 7.

[2] = system: larvae of the root gall nematode (Meloidogyne incognita); experiment: Example F: root gall nematode, contact action (part A) and soil drench action on cucumber (part B); conditions: 500 ppm or less; part A 6 days exposure, part B root galls on cucumber after 2 weeks (Abbott's formula)
Method: as §1
Part A of the examination (contact action): in a glass vessel, an aqueous solution of the formulated preparation to be examined was added to about 5000 freshly hatched active (mobile) larvae (2nd development stage) of the root gall nematode (Meloidogyne incognita) (final volume 20 ml). After 6 days of permanent exposure of the nematode larvae, the percentage of the individual larvae immobilized by the action of the preparation was determined in comparison to the untreated controls (nematicidal contact action in percent).
Part B of the examination (soil drench action): to this end, the entire solution from part A of the examination (active compound and pre-treated nematode larvae) was poured into a pot, filled with 60 ml of soil, into which three 9-day-old cucumber plants (Cucumis sativus) had been planted. This drench application reduced the active compound content based on the soil volume to one third of the active compound content in part A of the examination. After 2 weeks in a greenhouse at about 26° C. (watering: twice a day), the root balls of the cucumber plants were carefully washed out of the soil mixture contaminated with nematodes. The number of root galls per plant was counted and compared to the infection of untreated control plants. The reduction of the infection in percent as a criterion for the assessment of the activity was calculated using Abbott's formula (nematicidal soil drench action). The following examples were active: Nos. 6, 7, 29, 32, 34, 44, 356.

[3] = system: eggs of the American tobacco budworm (Heliothis virescens); experiment: Example C: eggs of American tobacco budworm, Petri dish with culture medium; conditions: 500 ppm or less; eggs dipped 5 seconds, 200 μl on culture medium; after 6 days
Method: as §1
A Petri dish whose bottom was covered with filter paper and which contained about 5 ml of culture medium was prepared. Pieces of filter paper with about 30, one-day-old eggs of the American tobacco budworm (Heliothis virescens) were dipped for 5 seconds into an aqueous solution of the formulated preparation to be examined and subsequently placed in a Petri dish. A further 200 μl of the aqueous solution were spread over the culture medium. The Petri dish was closed and then stored at about 25° C. in a climatized chamber. After 6 days of storage, the effect of the preparation on the eggs and any larvae which may have hatched from these (mortality) was determined. The following examples were active: Nos. 6, 27, 28, 29, 31, 35, 39, 43, 45, 59, 97, 226, 227, 228, 229, 351, 356, 357, 592, 593, 595, 949, 1001, 1126, 1129, 1132.

[4] = system: L2 larvae of the Egyptian cotton leaf worm (Spodoptera littoralis); experiment: Example D: L2 larvae of Egyptian cotton leaf worm, Petri dish with culture medium; conditions: 500 ppm or less, after 6 days
Method: as §1
A Petri dish whose bottom was covered with filter paper and which contained about 5 ml of culture medium was prepared. Five L2 larvae of the Egyptian cotton leaf worm (Spodoptera littoralis) were counted into small beakers. 200 μl of an aqueous solution of the formulated preparation to be examined were pipetted into the beaker. The treated larvae were then poured into the Petri dish, and a further 200 μl of the aqueous solution were distributed over the culture medium. The Petri dish was closed and then stored at about 25° C. in a climatized chamber. After 6 days of storage, the effect of the preparation on the larvae (mortality) was determined. The following examples were active: Nos. 27, 28, 29, 39, 43, 45, 59.

[5] = system: L2 larvae of the sugar beet armyworm (Spodoptera exigua); experiment: Example I: sugar beet armyworm L2 larvae on sprayed cotton leaves; conditions: 500 ppm or less, after 4 days
Method: as §1
Cotton plants were sprayed with an aqueous solution of the formulated preparation to be examined. After drying, leaves were cut off, placed into a Petri dish and populated with 5 L2 larvae of the sugar beet armyworm (Spodoptera exigua). After 4 days of storage at about 23° C., the effect of the preparation on the larvae (mortality) was determined. The following examples were active: Nos. 27, 28, 45, 59.

[6] = system: L1 larvae of the codling moth (Carpocapsa pomonella); experiment: Example J: codling moth L1 larvae on treated culture medium; conditions: 500 ppm or less, after 14 days
Method: as §1
Culture medium was mixed with an aqueous solution of the formulated preparation to be examined and populated with 10 L1 larvae of the codling moth (Carpocapsa pomonella). After 14 days of storage at about 23° C., the effect of the preparation on the larvae (mortality) was determined. The following examples were active: Nos. 28, 59.

[7] = system: larvae of the diamondback moth (Plutella xylostella); experiment: Example L: diamondback moth larvae on sprayed cabbage leaf; conditions: 500 ppm or less, after 4 days
Method: as §1
A cabbage leaf was sprayed with an aqueous solution of the formulated preparation to be examined. After drying, the treated leaf was populated with larvae of the diamondback moth (Plutella xylostella). After 4 days of storage at about 25° C., the effect of the preparation on the larvae (mortality) was determined. The following examples were active: Nos. 27, 28, 45.

COC(=O)c1cc(OCC=C(Cl)Cl)cc(Cl)c1OCCCc1ccc(Cl)cc1 [compound 7]
active: effect of the preparation on the eggs and any larvae hatched (mortality) [1] | nematicidal contact action / nematicidal soil drench action [2]

CC(=NO)c1cc(OCC=C(Cl)Cl)cc(Cl)c1OCCCOc1ccc(C(F)(F)F)cn1 [compound 28]
active: effect of the preparation on the eggs and any larvae hatched (mortality) [3] | effect of the preparation on the larvae (mortality) [4] | effect of the preparation on the larvae (mortality) [5] | effect of the preparation on the larvae (mortality) [6] | effect of the preparation on the larvae (mortality) [7]
